Data on 1 substance can be found in patent publication US11160887B2, “Compositions for use in diagnosing and treating melanoma, including metastatic melanoma and methods related to same” (UNM RAINFOREST INNOVATIONS, priority 2008, dated 2021).

Data set [1] deals with melanoma metastases smaller than 5 mm. The settings on record: literature (5); cited from earlier work.
Data set [2] concerns B16/F10 pulmonary melanoma metastases. It is filed as in vivo, mouse. How it is done:
Metastatic Melanoma Imaging: A pulmonary metastatic melanoma-bearing mouse was used for [^18F]FDG PET imaging 16 days after the cell injection and used for ^111In-DOTA-GlyGlu-CycMSH SPECT/CT imaging on next day (a time interval of 26 h) to compare the difference in detection efficiency between [^18F]FDG and ^111In-DOTA-GlyGlu-CycMSH. The mouse was injected with 35.15 MBq of commercial [^18F]FDG (Biotech, N. Mex.) via the tail vein. At 1 h post-injection, the mouse was anesthetized with 1.5% isoflurane and placed in the prone position near the center of the field of view of small animal PET (LabPET™) (Gamma Medica-Ideas, Sherbrooke, Quebec). A 30-min static scan was acquired, and the image was reconstructed by maximum likelihood estimation method (MLEM). The mouse was returned to the cage for recovery after the ^18F-FDG PET imaging study was completed. The same mouse was injected with 24.05 MBq of ^111In-DOTA-GlyGlu-CycMSH via the tail vein 24 h after the ^18F-FDG PET imaging study. The mouse was anesthetized with 1.5% isoflurane for small animal SPECT/CT (Nano-SPECT/CT®, Bioscan) imaging 2 h post-injection. The 6-min CT imaging was immediately followed by the focused SPECT imaging of lung. The SPECT scans of 24 projections were acquired and total acquisition time was 45 min. After the focused lung imaging, the mouse was sacrificed with CO2 inhalation for whole-body SPECT/CT imaging. The 9-min CT imaging was immediately followed by the SPECT imaging of whole-body. Reconstructed data from SPECT and CT were visualized and co-registered using InVivoScope (Bioscan, Washington D.C.). Necropsy analysis of the mouse was performed to confirm the pulmonary metastatic melanoma lesions after the SPECT/CT imaging studies were completed. To monitor the development of pulmonary melanoma metstases with ^111In-DOTA-GlyGlu-CycMSH, a pulmonary metastatic melanoma-bearing mouse was injected with 10.36 MBq of ^111In-DOTA-GlyGlu-CycMSH through the tail vein for small animal SPECT/CT imaging 20 days after the cell injection. […]

With “2-[^18F]fluoro-2-deoxy-D-glucose [[^18F]FDG]”, the “melanoma metastases smaller than 5 mm detected by PET imaging” value in data set [1] is listed as 23%. In addition, in data set [2] (SPECT/CT 2 h post-injection (111In peptide) or PET 1 h post-injection ([18F]FDG), same mouse, 16-17 days post the cell injection), the “detection of pulmonary metastatic melanoma lesions by imaging” value is recorded as “failed in identifying the pulmonary melanoma metastases”. The “accumulation of activity in normal organs in whole-body image” value in data set [2] (mouse, in vivo) is “much higher normal organ accumulation”.
